According to patent US20090281157A1, “Active Ingredient Combinations With Insecticidal and Acaricidal Properties” (Bayer Cropscience AG, priority 2006, published 2009):

Key:
Type in all cases: in vivo
Aphis gossypii = Aphis gossypii test (dipped cotton leaves)
Description: (§1) To produce a suitable preparation of active compound, 1 part by weight of active compound is mixed with the stated amounts of solvent and emulsifier, and the concentrate is diluted with emulsifier-containing water to the desired concentration.
Cotton leaves (Gossypium herbaceum) which are heavily infested by the cotton aphid (Aphis gossypii) are treated by being dipped into the active compound preparation of the desired concentration.
(§2) After the desired period of time, the kill in % is determined. 100% means that all aphids have been killed; 0% means that none of the aphids have been killed. The kill rates determined are entered into Colby's formula.

Myzus persicae = Myzus persicae test (spray on infested cabbage leaves)
Description: (§3) To produce a suitable preparation of active compound, 1 part by weight of active compound is mixed with the stated amounts of solvents and emulsifier, and the concentrate is diluted with emulsifier-containing water to the desired concentration.
Cabbage leaves (Brassica oleracea) which are heavily infested by the Green peach aphid (Myzus persicae), are treated by spraying with the active compound preparation of the desired concentration.
as §2

Tetranychus urticae = assay: Tetranychus test (OP-resistant/spray treatment) on bean leaf disks
Description: as §1
Disks of bean leaves (Phaseolus vulgaris) which are infested by all stages of the greenhouse red spider mite (Tetranychus urticae) are sprayed with an active compound preparation of the desired concentration.
After the desired period of time, the activity in % is determined. 100% means that all spider mites have been killed; 0% means that none of the spider mites have been killed.

Spodoptera frugiperda = Spodoptera frugiperda larvae test (sprayed cabbage leaves)
Description: as §3
Cabbage leaves (Brassica oleracea) are treated by spraying with the active compound preparation of the desired concentration and are populated with larvae of the armyworm (Spodoptera frugiperda) while the leaves are still moist.
After the desired period of time, the kill in % is determined. 100% means that all caterpillars have been killed; 0% means that none of the caterpillars have been killed. The kill rates determined are entered into Colby's formula.

Phaedon cochleariae = Phaedon cochleariae larvae test (sprayed cabbage leaves)
Description: as §3
Cabbage leaves (Brassica oleracea) are treated by spraying with the active compound preparation of the desired concentration and are populated with larvae of the mustard beetle (Phaedon cochleariae) while the leaves are still moist.
After the desired period of time, the kill in % is determined. 100% means that all beetle larvae have been killed; 0% means that none of the beetle larvae have been killed. The kill rates determined are entered into Colby's formula.

`CO[C@H]1CC[C@]2(CC1)NC(=O)C(c1cc(C)ccc1C)=C2O` [compound (I)] was tested, and the “Kill in % after 1d” value (Aphis gossypii; 4 ppm) was 0%.
`CC1(C)C(/C=C(\Cl)C(F)(F)F)C1C(=O)OC(C#N)c1cccc(Oc2ccccc2)c1` [L-cyhalothrin, lambda-cyhalothrin] was tested, and the “Kill in % after 1d” value (Myzus persicae; 0.16 g/ha) was 10%, the “Kill in % after 1d” value (Aphis gossypii; 0.16 ppm) was 20% and the “Kill in % after 6d” value (Tetranychus urticae; 0.032 g/ha) was 0%.
With `COC1CCC2(CC1)NC(=O)C(c1cc(C)ccc1C)=C2O` (stereo not shown) [compound (Ia)] the “Kill in % after 1d” value (Aphis gossypii; 4 ppm) was 0%.
For `CC1(C)[C@H](/C=C(\Cl)C(F)(F)F)[C@@H]1C(=O)O[C@H](C#N)c1cccc(Oc2ccccc2)c1` [gamma-cyhalothrin], the “Kill in % after 1d” value (Myzus persicae; 0.0064 g/ha) was 0%.
In the case of `Cc1c(COC(=O)C2C(/C=C(\Cl)C(F)(F)F)C2(C)C)cccc1-c1ccccc1` (stereo not shown) [bifenthrin], the “Kill in % after 1d” value (Myzus persicae; 0.0064 g/ha) is reported as 0% and the “Kill in % after 6d” value (Spodoptera frugiperda; 0.8 g/ha) is reported as 0%.
`CCOC(=O)OC1=C(c2cc(C)ccc2C)C(=O)NC12CCC(OC)CC2` (stereo not shown) [compound (II-a)] was tested, and the “Kill in % after 6d” value (Phaedon cochleariae; 4 g/ha) was 0%, the “Kill in % after 6d” value (Phaedon cochleariae; 20 g/ha) was 0% and the “Kill in % after 6d” value (Phaedon cochleariae; 100 g/ha) was 83%. The “Kill in % after 1d” value (Myzus persicae; 0.8 g/ha) was 20%, the “Kill in % after 1d” value (Myzus persicae; 20 g/ha) was 0% and the “Kill in % after 6d” value (Spodoptera frugiperda; 20 g/ha) was 17%. For the same compound, the “Kill in % after 6d” value (Spodoptera frugiperda; 100 g/ha) was 50%, the “Kill in % after 6d” value (Tetranychus urticae; 0.8 g/ha) was 60% and the “Kill in % after 2d” value (Tetranychus urticae; 4 g/ha) was 30%. For the same compound, the “Kill in % after 6d” value (Tetranychus urticae; 4 g/ha) was 90% and the “Kill in % after 2d” value (Tetranychus urticae; 100 g/ha) was 40%.
In the case of `CC1(C)C(C=C(Cl)Cl)C1C(=O)OC(C#N)c1ccc(F)c(Oc2ccccc2)c1` (stereo not drawn) [β-cyfluthrin, betacyfluthrin], the “Kill in % after 1d” value (Myzus persicae; 0.0064 g/ha) is reported as 0% and the “Kill in % after 6d” value (Tetranychus urticae; 0.0064 g/ha) is reported as 0%.
With `CC1(C)[C@H](C(=O)O[C@H](C#N)c2cccc(Oc3ccccc3)c2)[C@@H]1C=C(Br)Br` [deltamethrin] the “Kill in % after 2d” value (Tetranychus urticae; 0.032 g/ha) was 10%.
`CCOC(=O)OC1=C(c2cc(C)ccc2C)C(=O)N[C@]12CC[C@@H](OC)CC2` [compound (II)] was tested, and the “Kill in % after 6d” value (Phaedon cochleariae; 4 g/ha) was 0%, the “Kill in % after 6d” value (Phaedon cochleariae; 20 g/ha) was 0% and the “Kill in % after 6d” value (Phaedon cochleariae; 100 g/ha) was 50%. The “Kill in % after 1d” value (Myzus persicae; 0.8 g/ha) was 20%, the “Kill in % after 1d” value (Myzus persicae; 20 g/ha) was 0% and the “Kill in % after 6d” value (Spodoptera frugiperda; 20 g/ha) was 17%. For the same compound, the “Kill in % after 6d” value (Spodoptera frugiperda; 100 g/ha) was 67%, the “Kill in % after 6d” value (Tetranychus urticae; 0.8 g/ha) was 50% and the “Kill in % after 2d” value (Tetranychus urticae; 4 g/ha) was 50%. The “Kill in % after 6d” value (Tetranychus urticae; 4 g/ha) was 90% and the “Kill in % after 2d” value (Tetranychus urticae; 100 g/ha) was 70%.
For `CC1(C)C(C=C(Cl)Cl)C1C(=O)OC(C#N)c1cccc(Oc2ccccc2)c1` (stereo not drawn) [alpha-cypermethrin], the “Kill in % after 6d” value (Phaedon cochleariae; 0.8 g/ha) was 67%.
`CC1(C)C(C=C(Cl)Cl)C1C(=O)OC(C#N)c1cccc(Oc2ccccc2)c1` (stereo not shown) [zeta-cypermethrin] was tested, and the “Kill in % after 6d” value (Phaedon cochleariae; 0.16 g/ha) was 0%.
For `CC1(C)C(C=C(Cl)Cl)C1C(=O)OC(C#N)c1cccc(Oc2ccccc2)c1` (stereo not shown) [cypermethrin], the “Kill in % after 6d” value (Phaedon cochleariae; 0.8 g/ha) was 17% and the “Kill in % after 6d” value (Spodoptera frugiperda; 0.8 g/ha) was 0%.
